Measured values reported in patent US8633245B2, “PAI-1 inhibitor” (Institute of Medicinal Molecular Design, Inc., priority 2008, dated 2014).

Molecular target: T1, recombinant human PAI-1 (Homo sapiens, UniProt P05121)
T1 construct: purchased Molecular Innovations, Inc
Test: Test Example 1: human PAI-1 inhibitory activity (tPA fluorogenic substrate, pH 7.5 Tris buffer)
Format: biochemical
Conditions: Tris buffer
Procedure: 50 mM Tris, 150 mM NaCl, 10 μg/ml BSA, 0.01% Tween80 (SIGMA-ALDRICH Corporation)

T1 sequence (P05121 24-402): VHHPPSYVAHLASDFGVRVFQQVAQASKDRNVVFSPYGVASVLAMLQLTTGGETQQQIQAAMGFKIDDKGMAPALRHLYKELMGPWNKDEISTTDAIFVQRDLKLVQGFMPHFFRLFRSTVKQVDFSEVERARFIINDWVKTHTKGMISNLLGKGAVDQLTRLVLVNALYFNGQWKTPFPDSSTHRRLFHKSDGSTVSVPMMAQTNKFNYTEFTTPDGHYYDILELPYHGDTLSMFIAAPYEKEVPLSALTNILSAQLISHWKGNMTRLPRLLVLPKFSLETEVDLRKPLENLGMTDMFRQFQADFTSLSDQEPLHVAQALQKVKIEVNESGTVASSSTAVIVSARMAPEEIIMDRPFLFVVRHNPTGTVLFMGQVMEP

| Inhibition Rate of PAI-1 Activity (%) (Compound Concentration 5 μM) | Inhibition Rate of PAI-1 Activity (%) (Compound Concentration 10 μM) | Inhibition Rate of PAI-1 Activity (%) (Compound Concentration 25 μM) | SMILES |
| --- | --- | --- | --- |
| 22% | 47% | 91% | CC(C)(C)c1ccc(-c2ccc(OCc3ccccc3)c(/C=C/C(=O)O)c2)cc1 [Compound 47] |
| 69% | 91% | 97% | CC(C)(C)c1ccc(-c2ccc(N(Cc3cccc(OC(F)(F)F)c3)C(=O)C(=O)O)cc2)cc1 [Compound 203] |
| 9% | 16% | 36% | O=C(O)C(=O)N(c1ccc(-c2ccc(OC(F)(F)F)cc2)cc1)C1CCCCC1 [Compound 253] |
| 37% | 70% | 94% | CC(C)(C)c1ccc(-c2ccc(OCc3ccccc3OC(F)(F)F)c(CCC(=O)O)c2)cc1 [Compound 67] |
| 77% | 94% | 93% | CCCCCOc1ccc(-c2ccc(OC(F)(F)F)cc2)cc1N(Cc1ccccc1)C(=O)C(=O)O [Compound 195] |
| 42% | 77% | 97% | CC(C)(C)c1ccc(CN(C(=O)C(=O)O)c2ccc(Nc3ccc(OC(F)(F)F)cc3)cc2)cc1 [Compound 626] |
| 28% | 57% | 95% | CC(C)(C)c1ccc(COc2ccc(-c3ccc(C(F)(F)F)cc3)cc2/C=C/C(=O)O)cc1 [Compound 35] |
| 22% | 47% | 91% | COc1ccccc1-c1ccc(OCc2ccc(C(C)(C)C)cc2)c(CCC(=O)O)c1 [Compound 56] |
| 64% | 89% | 82% | CC(C)(C)c1ccc(CN(C(=O)C(=O)O)c2ccc(-c3ccccc3OC(F)(F)F)cc2)cc1 [Compound 201] |
| 77% | 93% | >99% | CC(C)(C)c1ccc(-c2ccc(Oc3ccc(-c4ccc(OC(F)(F)F)cc4)cc3CCC(=O)O)c(CCC(=O)O)c2)cc1 [Compound 541] |
| 16% | 43% |  | COc1ccc(-c2ccc(N(Cc3ccc(C(C)(C)C)cc3)C(=O)C(=O)O)cc2)cc1 [Compound 126] |
| 83% | 94% |  | CC(C)(C)c1ccc(COc2ccc(-c3ccc(OC(F)(F)F)cc3)cc2NC(=O)C(=O)[O-])cc1.[Na+] [Compound 6] |
| 32% | 65% | >99% | CC(C)(C)c1ccc(COc2ccc(-c3ccc4c(c3)OCO4)cc2CC(=O)O)cc1 [Compound 10] |
| 5% | 29% | 92% | O=C(O)CCc1cc(-c2ccc(OC(F)(F)F)cc2)ccc1OCc1ccc(Cl)cc1Cl [Compound 27] |
| 75% | 91% | 91% | CC(C)(C)c1ccc(-c2ccc(Oc3ccc(-c4ccc(OC(F)(F)F)cc4)cc3/C=C/C(=O)O)c(CCC(=O)O)c2)cc1 [Compound 540] |
| 51% | 87% | 94% | CC(C)(C)c1ccc(Oc2cccc(-c3ccc(OC(F)(F)F)cc3)c2C=CC(=O)O)cc1 [Compound 93] |
| 23% | 60% | 99% | CC(C)(C)c1ccc(COc2ccc(-c3ccc(C(F)(F)F)cc3)cc2CCC(=O)O)cc1 [Compound 36] |
|  | 9% | 25% | CC(C)(C)c1ccc(COc2ccc(-c3cccc(C(=O)O)c3)cc2CCC(=O)O)cc1 [Compound 26] |
| 48% | 80% | 94% | CCCOc1ccc(N(CCCc2ccccc2)C(=O)C(=O)O)cc1-c1ccc(OC(F)(F)F)cc1 [Compound 229] |
| 44% | 72% | 88% | CC(C)(C)c1ccc(CN(C(=O)C(=O)O)c2ccc(OCc3ccc(OC(F)(F)F)cc3)c(OCc3ccc(OC(F)(F)F)cc3)c2)cc1 [Compound 622] |
|  | 3% | 34% | CC(C)(C)c1ccc(CN(C(=O)C(=O)O)c2ccc(-c3ccc(C#N)cc3)cc2)cc1 [Compound 149] |
| 18% | 35% | 64% | CC(C)(C)c1ccc(CN(C(=O)C(=O)O)c2ccc(-c3ccc(OC(F)(F)F)cc3)c(CCC(=O)O)c2)cc1 [Compound 196] |

| Inhibition Rate of PAI-1 Activity (%) (Compound Concentration 5 μM) | Inhibition Rate of PAI-1 Activity (%) (Compound Concentration 10 μM) | Inhibition Rate of PAI-1 Activity (%) (Compound Concentration 25 μM) | SMILES |
| --- | --- | --- | --- |
| 38% | 69% | >99% | CC(C)(C)c1ccc(CN(C(=O)CCC(=O)O)c2ccc(-c3ccc(OC(F)(F)F)cc3)cc2)cc1 [Compound 609] |
| 43% | 80% | 98% | CC(C)Oc1ccc(N(CCCc2ccccc2)C(=O)C(=O)O)c(-c2ccc(OC(F)(F)F)cc2)c1 [Compound 239] |
| 39% | 70% | 94% | CCCOc1ccc(N(Cc2ccccc2)C(=O)C(=O)O)cc1-c1ccc(OC(F)(F)F)cc1 [Compound 210] |
| 22% | 41% | 87% | CN(C(=O)C(=O)O)c1ccc(OCc2ccc(OC(F)(F)F)cc2)c(OCc2ccc(OC(F)(F)F)cc2)c1 [Compound 623] |
| 25% | 63% | 97% | CC(C)(C)c1ccc(COc2c(Cl)cc(-c3ccc(OC(F)(F)F)cc3)cc2CCC(=O)O)cc1 [Compound 92] |
| 2% | 8% | 23% | CC(C)(C)CN(C(=O)C(=O)O)c1ccc(-c2ccc(OC(F)(F)F)cc2)cc1 [Compound 255] |
| 64% | 87% | 95% | CCC(Oc1ccc(-c2ccc(OC(F)(F)F)cc2)cc1Oc1ccc(C(C)(C)C)cc1)C(=O)O (stereo not shown) [Compound 114] |
| 88% | 94% |  | CCCCCOc1ccc(-c2ccc(OC(F)(F)F)cc2)cc1N(CCCCCc1ccccc1)C(=O)C(=O)O [Compound 242] |
| 28% | 62% | 95% | Cc1cc(-c2ccc(OC(F)(F)F)cc2)cc(CCC(=O)O)c1OCc1ccc(C(C)(C)C)cc1 [Compound 84] |
|  | 11% | 70% | O=C(O)CCc1cc(-c2ccc(OC(F)(F)F)cc2)ccc1OCc1ccccc1C(F)(F)F [Compound 21] |
| 30% | 40% | 53% | O=C(O)C=Cc1c(Oc2ccc(OC(F)(F)F)cc2)cccc1Oc1ccc(OC(F)(F)F)cc1 [Compound 97] |
| 46% | 87% | 95% | CC(C)(C)c1ccc(Oc2cc(Oc3ccc(OC(F)(F)F)cc3)ccc2/C=C/C(=O)O)cc1 [Compound 89] |
|  | 7% | 47% | COc1ccccc1COc1ccc(-c2ccc(OC(F)(F)F)cc2)cc1CCC(=O)O [Compound 23] |
| 23% | 53% | 96% | CC(C)(C)c1ccc(COc2ccc(-c3ccc(F)cc3)cc2/C=C/C(=O)O)cc1 [Compound 33] |
| 64% | 89% | 92% | CC(C)(C)c1ccc(CN(C(=O)C(=O)O)c2ccc(-c3cccc(OC(F)(F)F)c3)cc2)cc1 [Compound 200] |
| 29% | 62% | 99% | O=C(O)CCc1cc(-c2ccc(OC(F)(F)F)cc2)ccc1OCc1ccc(OC(F)(F)F)cc1 [Compound 62] |
| 63% | 95% | 90% | CC(C)(C)c1ccc(CN(C(=O)C(=O)O)c2c(Cl)cc(-c3ccc(OC(F)(F)F)cc3)cc2Cl)cc1 [Compound 173] |
| 38% | 66% | 84% | CC(C)(C)c1ccc(COc2ccc(OCc3ccc(OC(F)(F)F)cc3)cc2/C=C/C(=O)O)cc1 [Compound 413] |
|  | 3% | 33% | CC(C)(C)c1ccc(CN(C(=O)C(=O)O)c2ccc(-c3cccc([N+](=O)[O-])c3)cc2)cc1 [Compound 142] |
| 13% | 53% | 96% | CC(C)c1ccc(Oc2ccc(/C=C\C(=O)O)c(Oc3ccc(C(C)C)cc3)c2)cc1 [Compound 74] |
| 37% | 84% | >99% | CC(C)(C)c1ccc(CN(C(=O)C(=O)O)c2ccc(-c3ccc(C(C)(C)C)cc3)cc2)cc1 [Compound 163] |
| 32% | 72% | 98% | CC(C)c1ccc(Oc2ccc(/C=C/C(=O)O)c(Oc3ccc(C(C)C)cc3)c2)cc1 [Compound 72] |
